For two compounds, Partition ratio results are on record in ChEMBL document CHEMBL1128595, “Synthesis and biological activity of 7-alkylidenecephems” (J Med Chem, 1995).

This data set deals with Beta-lactamase (Enterobacter cloacae) (UniProt P05364). Description: The beta-lactamase inactivation partition ratio of the compound.

Turning to `CC(=O)OCC1=C(C(=O)[O-])N2C(=O)/C(=C/c3ccccn3)[C@H]2S(=O)(=O)C1.[Na+]`, the Partition ratio is 20.

With `CC(=O)OCC1=C(C(=O)[O-])N2C(=O)C(=C=CC(C)(C)C)[C@H]2S(=O)(=O)C1.[Na+]`, the Partition ratio was 12.
